Experimental data: US12180473B2, “Chimeric RNA-driven genomic rearrangement in mammalian cells” (priority 2018, dated 2024)

Tests used:
AZI1 RNA = conditions: LNCaP cells
TMPRSS2-ERG fusion [1] = tested on: TMPRSS2-ERG fusion
TMPRSS2 mRNA = conditions: LNCaP cells
ERG mRNA = experiment: RT-PCR of endogenous ERG mRNA in LNCaP cells
TMPRSS2-ERG fusion [2] = tested on: TMPRSS2-ERG fusion; remark: listed apart in the source
Description: LNCaP cells were cultured in this special medium for 24 hrs prior to plasmid transfection.
Transfection was performed using Turbofect transfection reagent (Thermo Scientific, #R0531) according to manufacturer's protocol. Briefly, 1 μg of a particular plasmid was first diluted in 100 μl of the serum-free DMEM followed by immediate mixing by pipetting. 4 μl of the transfection reagent was then added to the diluted DNA followed by mixing and incubation for 20 min. The DNA/transfection reagent mixture was then added drop wise to a well containing LNCaP cells in 1 ml medium.
For treating cultured cells, concentrated DHT stock was diluted as 10× working solutions (for example, for 0.9 μM final concentration, 10× is prepared as 9.0 μM) with the appropriate complete culture medium and used immediately. […] Six hrs post transfection, 111 μl of fresh 10× DHT working solutions was added to each well of 12-wells plate containing 1 ml medium and transfected cells.
Briefly, cells were suspended in 200 μl of PBS buffer and were then lysed with 400 μl of lysis buffer. The sample was then passed through the filter assembly resulting in the binding of the nucleic acids to the filter. The filter containing nucleic acids was then incubated with DNase I dissolved in DNase incubation buffer to degrade genomic and plasmid DNAs. The column was then rinsed with wash buffer and total RNA then eluted in a new tube for further analysis.
After the addition of dNTPs, the mixture was denatured at 65° C. for 5 minutes. This was followed by the addition of a master-mix containing 1× superscript buffer, 10 mM DTT, 5 mM Magnesium chloride, RNaseOUT and Superscript III reverse transcriptase. Reactions were carried out at 50° C. for 50 minutes and then terminated by incubation at 85° C. for 5 minutes. cDNA was then treated with RNase-H for 20 minutes at 37° C. to degrade RNA in DNA/RNA hybrid. 1 μl of cDNA was used as template for each subsequent PCR reaction.
The Denaturation, Annealing and Extension steps were performed 32 cycles for induced fusion RNA and 27 cycles for input RNA.

**Q.** Which results are given for `C[C@]12CCC(=O)C[C@@H]1CC[C@@H]1[C@@H]2CC[C@]2(C)[C@@H](O)CC[C@@H]12` [DHT, 5α-Androstan-17β-ol-3-one]?
**A.** endogenous AZI1 RNA expression (AZI1 RNA): upregulated; TMPRSS2-ERG fusion transcript in PNT1A cells with DHT alone (TMPRSS2-ERG fusion [1]): no detectable fusion transcripts; TMPRSS2 mRNA expression (TMPRSS2 mRNA): upregulated; endogenous ERG mRNA (three-rounds of nested RT-PCR) (ERG mRNA; presence or absence of DHT or antisense-5): not detected; endogenous ERG mRNA (RT-PCR) (ERG mRNA; wide range of DHT, presence or absence of antisense-5): not detected; DHT concentration at which fusion induction is detectable (TMPRSS2-ERG fusion [2]): ~0.6 µM; DHT concentration at which fusion induction reaches its maximum (TMPRSS2-ERG fusion [2]): 1.5 µM
